Assay results reported in patent US20170252323A1, “4-[2-(Dipropylamino)ethyl]-1,3-dihydro-2H-indol-2-one (Ropinirole) a New Inhibitor of Jack bean Urease Enzyme: An Example of Drug Repurposing” (priority 2016, published 2017).
Like-named read-outs stand apart in the source and are kept apart here.

Assays:
[1] = target: Jack bean (Canavalia ensiformis) urease (Canavalia ensiformis, UniProt P07374); assay: biochemical
Description: Each point in the constructed graphs represents the mean of the three experiments.

urease enzyme = urease enzyme (Canavalia ensiformis, UniProt P07374); assay: Mechanistic studies (Lineweaver-Burk, secondary replot, Dixon plot); assay type: biochemical; conditions: Lineweaver-Burk and Dixon plots; substrate 0.5-4.0 mM; Ropinirole 5, 10, 20 μM
Procedure: Mechanistic studies were carried out to determine the mechanism of inhibition of 4-[2-(dipropylamino)ethyl]-1,3-dihydro-2H-indol-2-one ( Ropinirole) of the enzyme urease. In brief, urease enzyme solution (1 U/200 μL) was incubated with different concentrations of Ropinirole for 15 min at 30° C. The reaction was then initiated by adding different concentrations of substrate (0.5-4.0 mM), then phenol and alkali reagent were added and change in absorbance was measured for 50 minutes at 630 nm on microtitre plate reader (SpectraMax M5, Molecular Devices, Calif., USA). The Lineweaver-Burk plot was used to determine the type of inhibition, while secondary replot of Lineweaver-Burk plot and Dixon plots were used for the determination and confirmation of dissociation constants (Ki).
The EZ-Fit enzyme kinetics program (Perrella Scientific Inc., Amherst, USA) was employed to calculate the IC50 values. All graphs were plotted by using Grafit 7 (Erithacus Software Limited, UK). Values of the correlation coefficients, intercepts, slopes, and their standard errors were calculated by the linear regression analysis by using the same program. Each point in the constructed graphs represents the mean of the three experiments.

Chain of Jack bean (Canavalia ensiformis) urease (P07374 whole entry, looked up): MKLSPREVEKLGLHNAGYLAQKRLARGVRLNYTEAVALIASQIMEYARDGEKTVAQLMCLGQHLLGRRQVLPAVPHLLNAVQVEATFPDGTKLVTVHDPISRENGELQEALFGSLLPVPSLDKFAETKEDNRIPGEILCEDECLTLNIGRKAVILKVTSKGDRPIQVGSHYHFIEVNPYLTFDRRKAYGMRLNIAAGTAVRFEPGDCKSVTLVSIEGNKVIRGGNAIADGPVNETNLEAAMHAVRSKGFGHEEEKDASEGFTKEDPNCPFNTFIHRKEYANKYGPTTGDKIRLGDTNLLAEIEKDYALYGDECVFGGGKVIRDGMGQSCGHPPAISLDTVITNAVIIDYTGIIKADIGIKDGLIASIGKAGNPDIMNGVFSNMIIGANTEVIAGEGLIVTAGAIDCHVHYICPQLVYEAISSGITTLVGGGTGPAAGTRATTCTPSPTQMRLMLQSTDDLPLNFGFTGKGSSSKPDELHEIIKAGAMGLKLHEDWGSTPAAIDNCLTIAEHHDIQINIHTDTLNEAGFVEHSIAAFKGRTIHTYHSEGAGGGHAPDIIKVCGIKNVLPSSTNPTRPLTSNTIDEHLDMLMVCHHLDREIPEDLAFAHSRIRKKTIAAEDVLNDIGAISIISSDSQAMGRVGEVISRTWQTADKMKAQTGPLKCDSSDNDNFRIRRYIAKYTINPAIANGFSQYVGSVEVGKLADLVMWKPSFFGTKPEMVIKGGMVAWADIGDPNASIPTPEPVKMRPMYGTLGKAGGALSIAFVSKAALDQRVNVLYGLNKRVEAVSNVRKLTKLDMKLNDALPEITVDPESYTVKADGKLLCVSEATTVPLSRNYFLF
Chain of urease enzyme (P07374 whole entry, looked up): as above

Row | Structure (SMILES) | IC50 [1] | type of inhibition (urease enzyme) | IC50 ([1]; Jack bean urease, 100 mM urea, pH 6.8, 30° C., 15 min, triplicate, read-out: IC50 (urease inhibition))
1 | CCCN(CCC)CCc1cccc2c1CC(=O)N2 [Ropinirole, 4-[2-(Dipropylamino)ethyl]-1,3-dihydro-2H-indol-2-one] | 11.7 ± 0.46 µM | mixed-type of inhibitor | 
2 | CC(=O)NO [acetohydroxamic acid] |  |  | 41.5 ± 1.5 µM
